Test systems include COLO 205; HCT-15; NCI-H226; RPMI-8226; SW-620; SK-MEL-5; OVCAR-5; DMS-114; UACC-62; OVCAR-3; TK-10; IGROV-1; SK-MEL-2; HL-60; SNB-19.
Common to all, as to experiment: DTP human tumour cell line panel, 48 h

This is an account of results in ChEMBL document CHEMBL1201862, “PubChem BioAssay data set” (2004).

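Step 1: Grow cells in 96-well plates. Step 2: Expose to compound for 48 hours at 5 concentrations. Step 3: Interpolate endpoints linearly; if unreached, use highest concentration. At the GI50, growth is halved.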 Active and inactive are the calls of the source. No stated cut-off is given here; in the data, active = GI50 up to about 1.1 µM and inactive = higher. Bounds are passed on as bounds.

As usually defined, the GI50 is the concentration giving 50% growth inhibition. Turning to `CCOC(=O)CCC(=O)C1c2cccc(O)c2C(=O)c2c(O)cc(C)cc21` (stereo not drawn), the GI50 in the test on COLO 205 is 2 µM (inactive); in the test on HCT-15 it was 0.826 µM; with NCI-H226, 0.719 µM (active); in the test with RPMI-8226, 1.01 µM (active); with SW-620 it was 0.948 µM (active); with SK-MEL-5 it was 0.676 µM (active). For the same compound, the GI50 is 0.706 µM (active) in the test with OVCAR-5; 0.296 µM (active) in the test on DMS-114; 0.434 µM (active) in the test with UACC-62; 0.533 µM (active) in the test with OVCAR-3; 1.87 µM (inactive) in the test on TK-10; 0.289 µM (active) in the test with IGROV-1. For the same compound, the GI50 with SK-MEL-2 is 0.344 µM (active); in the test with HL-60, 0.676 µM (active); with SNB-19, 0.327 µM (active).
In the case of `CC(=O)CC(=O)Nc1ccc(OS(N)(=O)=O)cc1`, the GI50 with COLO 205 was > 100 µM (inactive); in the test with HCT-15, over 100 µM; with NCI-H226, > 100 µM (inactive); in the test with RPMI-8226 it was > 100 µM (inactive); with SW-620, > 100 µM (inactive); with SK-MEL-5, > 100 µM (inactive). Further, the GI50 with OVCAR-5, with DMS-114, in the test on UACC-62, with OVCAR-3, with TK-10 and in the test with IGROV-1 was > 100 µM (inactive) in each case. For the same compound, the GI50 in the test on SK-MEL-2, in the test with HL-60 and in the test on SNB-19 was > 100 µM (inactive) in each case.
In the case of `CC1COC(C)(C)P(=O)(c2ccccc2)C1` (stereo not drawn), the GI50 is > 100 µM (inactive) in the test with COLO 205; over 100 µM in the test with HCT-15; > 100 µM (inactive) with NCI-H226; > 100 µM (inactive) in the test on RPMI-8226; > 100 µM (inactive) in the test with SW-620; > 100 µM (inactive) in the test with SK-MEL-5. For the same compound, the GI50 in the test on OVCAR-5, in the test with DMS-114, with UACC-62, with OVCAR-3, in the test with TK-10 and in the test with IGROV-1 was > 100 µM (inactive) in each case. Moreover, the GI50 in the test on SK-MEL-2, in the test with HL-60 and with SNB-19 was > 100 µM (inactive) in each case.
As for `C[C@]12CC[C@H](O)CC1=CC[C@@H]1C2CC[C@]2(C)C(=O)NC(=O)CC12` (stereo partly drawn), the GI50 in the test with COLO 205 was 36.8 µM (inactive); with HCT-15 it was over 100 µM; with NCI-H226, > 100 µM (inactive); in the test on RPMI-8226, 23 µM (inactive); in the test on SW-620, 47.8 µM (inactive); with SK-MEL-5, > 100 µM (inactive). Also, the GI50 in the test with OVCAR-5 was > 100 µM (inactive); in the test with DMS-114, > 100 µM (inactive); with UACC-62 it was > 100 µM (inactive); with OVCAR-3, > 100 µM (inactive); with TK-10, > 100 µM (inactive); in the test on IGROV-1, 96.8 µM (inactive). Also, the GI50 with SK-MEL-2 was 64.7 µM (inactive); in the test on HL-60, > 100 µM (inactive); in the test with SNB-19 it was > 100 µM (inactive).
In the case of `C=C(c1ccccc1)[C@@]1(O)CCCC[C@H]1NC(c1ccccc1)c1ccccc1`, the GI50 in the test with COLO 205 was 14.2 µM (inactive); in the test on HCT-15 it was 10.9 µM; in the test with NCI-H226, 6.97 µM (inactive); with RPMI-8226, 3.94 µM (inactive); in the test with SW-620, 14.4 µM (inactive); in the test on SK-MEL-5 it was 9.51 µM (inactive). The GI50 in the test with OVCAR-5 is 13.6 µM (inactive); in the test with DMS-114, 9.64 µM (inactive); with UACC-62 it was 13.1 µM (inactive); with OVCAR-3, 12.1 µM (inactive); with TK-10 it was 16.3 µM (inactive); with IGROV-1, 16.2 µM (inactive). In addition, the GI50 with SK-MEL-2 is 13.3 µM (inactive); in the test on HL-60 it was 2.65 µM (inactive); in the test on SNB-19 it was 15.7 µM (inactive).
As for `CCOC(=O)/C(=C\c1ccc(OCc2ccccc2)c(OC)c1)C(=O)c1ccccc1`, the GI50 in the test with COLO 205 is 30.8 µM (inactive); in the test with HCT-15, 20.4 µM; in the test on NCI-H226, 25.7 µM (inactive); in the test on RPMI-8226 it was 27.6 µM (inactive); with SW-620, 18.4 µM (inactive); in the test on SK-MEL-5 it was 17.9 µM (inactive). Also, the GI50 is 20.7 µM (inactive) in the test on OVCAR-5; 19.7 µM (inactive) in the test on DMS-114; 23.3 µM (inactive) with UACC-62; 22 µM (inactive) in the test with OVCAR-3; 27.5 µM (inactive) with TK-10; 29.7 µM (inactive) in the test with IGROV-1. Besides, the figures for the GI50 in the test with SK-MEL-2, with HL-60 and in the test on SNB-19 were 19.6 µM (inactive), 20.1 µM (inactive) and 27.7 µM (inactive), respectively.
`COC(=O)C(=O)C(CC(=O)Nc1cc(Cl)ccc1Cl)C(=O)OC` (stereo not drawn): the GI50 in the test on COLO 205 was > 100 µM (inactive); with HCT-15, over 100 µM; in the test with NCI-H226, > 100 µM (inactive); in the test with RPMI-8226 it was > 100 µM (inactive); with SW-620, > 100 µM (inactive); in the test on SK-MEL-5, > 100 µM (inactive). Also, the GI50 with OVCAR-5, with DMS-114, with UACC-62, in the test with OVCAR-3, in the test with TK-10 and in the test on IGROV-1 was > 100 µM (inactive) in each case. Besides, the GI50 in the test with SK-MEL-2, with HL-60 and in the test on SNB-19 was > 100 µM (inactive) throughout.
For the compound `CC(=O)C(CN(C(C)C)C(C)C)C(c1ccccc1)c1c(O)c2ccccc2oc1=O` (stereo not drawn), the GI50 is > 100 µM (inactive) in the test with COLO 205; over 100 µM in the test with HCT-15; > 100 µM (inactive) in the test on NCI-H226; > 100 µM (inactive) in the test with RPMI-8226; > 100 µM (inactive) in the test with SW-620; > 100 µM (inactive) in the test with SK-MEL-5. In addition, the GI50 in the test on OVCAR-5, in the test on DMS-114, in the test on UACC-62, with OVCAR-3, in the test on TK-10 and in the test on IGROV-1 was > 100 µM (inactive) in each case. For the same compound, the GI50 in the test on SK-MEL-2, with HL-60 and in the test on SNB-19 was > 100 µM (inactive) in each case.
For `COc1cc(/C=C2\[C@@H]3NC(Cc4c(OC)c(C)c(OC)c(OC)c43)C(=O)N2Cc2ccccc2)c(OC)c(C)c1OC`, the GI50 in the test on COLO 205 is 15 µM (inactive); in the test on NCI-H226 it was 36.7 µM (inactive); with RPMI-8226, 29.8 µM (inactive); with SW-620 it was 68.9 µM (inactive); in the test on SK-MEL-5, 34.1 µM (inactive); in the test with OVCAR-5 it was 41.3 µM (inactive). Besides, the GI50 in the test on DMS-114 is 29.8 µM (inactive); with UACC-62 it was 47.5 µM (inactive); with OVCAR-3 it was 31.7 µM (inactive); in the test with TK-10, 40.6 µM (inactive); with IGROV-1, 34.1 µM (inactive); in the test with SK-MEL-2 it was 19.9 µM (inactive). Moreover, the GI50 in the test on HL-60 was 24.6 µM (inactive); in the test with SNB-19, 80.5 µM (inactive).
As to `CC(=O)N1CCN(c2ccc(OCC3COC(Cn4ccnc4)(c4ccc(Cl)cc4Cl)O3)cc2)CC1` (stereo not drawn) [KETOCONAZOLE], the GI50 in the test with COLO 205 is 20.1 µM (inactive); in the test with HCT-15 it was 25.8 µM; with NCI-H226 it was 18.7 µM (inactive); in the test with RPMI-8226, 35.9 µM (inactive); in the test on SW-620 it was 48 µM (inactive); in the test with SK-MEL-5 it was 12.2 µM (inactive). In addition, the GI50 in the test with OVCAR-5 is 30.3 µM (inactive); with DMS-114 it was 16 µM (inactive); in the test on UACC-62, 15.4 µM (inactive); with OVCAR-3 it was 28.1 µM (inactive); in the test on TK-10, 37.8 µM (inactive); with IGROV-1, 38.7 µM (inactive). Besides, the GI50 is 17.4 µM (inactive) in the test with SK-MEL-2 and 20.1 µM (inactive) in the test on HL-60.
